The subject of the assay is HBsAg. Put plainly: HBsAg assay. In kind it is cell-based, hepatitis B virus. Particulars: Hepatitis B virus, HepG2.2.15, 144 h, read-out: sAg EC50, μM, HepG2.2.15 cells, day 6. In a few lines: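 HepG2.2.15 cells were treated with serially diluted compounds (0.5% DMSO), with medium and compound renewed after 2-3 days. Secreted HBsAg measured at day 6 by chemiluminescence immunoassay; EC50 from dose-response curves. Viability assessed in parallel by CellTiter-Glo.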

Data on 17 compounds can be found in patent US11013726B2 (Arbutus Biopharma Corporation, priority 2016, dated 2021).

The structures appear in SMILES notation.

Consider `COc1cc2c(cc1Cl)-c1cc3noc(=O)c-3cn1C(C(C)C)CO2` (centres unmarked) [Example 151, 2-Chloro-7-isopropyl-3-methoxy-6,7-dihydro-10H-benzo[f]isoxazolo[3′,4′:4,5]pyrido[1,2-d][1,4]oxazepin-10-one], for which the EC50 – broadly, the midpoint of the concentration-response curve – worked out at 13 µM.

Consider `COCCCOc1cc2c(nc1OC)-c1cc(=NN)c(C(=O)NN)cn1[C@H](C(C)C)C2` [Example 152, (6S,10)-10-Hydrazinylidene-6-isopropyl-2-methoxy-3-(3-methoxypropoxy)-5H,6H-pyrido[1,2-h]1,7-naphthyridine-9-carbohydrazide], for which the concentration giving a half-maximal response (EC50) amounted to 0.03 µM.

In the case of `COCCCOc1cc2c(nc1OC)-c1cc3n[nH]c(=O)c-3cn1[C@H](C(C)C)C2` [Example 153, (S)-6-Isopropyl-2-methoxy-3-(3-methoxypropoxy)-5,10-dihydropyrazolo[3′,4′:4,5]pyrido[1,2-h][1,7]naphthyridin-9(6H)-one], the EC50 was found to be 0.23 µM.

Regarding `COCCCOc1cc2c(nc1OC)-c1cc(=O)c(C(=O)NNC(C)=O)cn1[C@H](C(C)C)C2` [Example 154, (6S)—N′-Acetyl-6-isopropyl-2-methoxy-3-(3-methoxypropoxy)-10-oxo-5H,6H-pyrido[1,2-h]1,7-naphthyridine-9-carbohydrazide], the EC50 came to 0.029 µM.

For `COCCCOc1cc2c(nc1OC)-c1cc(=O)c(C(=O)O)cn1C(C)(C(C)C)C2` (centres unmarked) [Example 155, 6-Isopropyl-2-methoxy-3-(3-methoxypropoxy)-6-methyl-10-oxo-5,10-dihydro-6H-pyrido[1,2-h][1,7]naphthyridine-9-carboxylic acid], the EC50 was 0.002 µM.

For the compound `COCCCOc1cc2c(nc1OC)-c1cc(=O)c(C(=O)O)cn1C(C)(C(C)(C)C)C2` (centres unmarked) [Example 158, 6-(Tert-butyl)-2-methoxy-3-(3-methoxypropoxy)-6-methyl-10-oxo-5,10-dihydro-6H-pyrido[1,2-h][1,7]naphthyridine-9-carboxylic acid], the EC50 was 0.001 µM.

For the compound `CCOC(=O)c1cn2c(cc1=O)-c1nc(OC)c(OCCCOC)cc1CC2(CC)CC` [Example 161, Ethyl 6,6-diethyl-2-methoxy-3-(3-methoxypropoxy)-10-oxo-5,10-dihydro-6H-pyrido[1,2-h][1,7]naphthyridine-9-carboxylate], the concentration giving a half-maximal response (EC50) turned out to be 0.1 µM.

Take `CCC1(CC)Cc2cc(OCCCOC)c(OC)nc2-c2cc(=O)c(C(=O)O)cn21` [Example 162, 6,6-Diethyl-2-methoxy-3-(3-methoxypropoxy)-10-oxo-5,10-dihydro-6H-pyrido[1,2-h][1,7]naphthyridine-9-carboxylic acid]: the EC50 was determined as 0.014 µM.

As to `CCC1(C(C)C)Cc2cc(OCCCOC)c(OC)nc2-c2cc(=O)c(C(=O)O)cn21` (centres unmarked) [Example 163, 6-Ethyl-6-isopropyl-2-methoxy-3-(3-methoxypropoxy)-10-oxo-5,10-dihydro-6H-pyrido[1,2-h][1,7]naphthyridine-9-carboxylic acid], the EC50 amounted to 0.13 µM.

As for `CC(C)[C@@H]1Cc2cc(O)c(O)nc2-c2cc(=O)c(C(=O)O)cn21` [Example 164, (6S)-2,3-Dihydroxy-6-isopropyl-10-oxo-5H,6H-pyrido[1,2-h]1,7-naphthyridine-9-carboxylic acid], the half-maximal effective concentration (EC50) amounted to 10 µM.

Consider `COc1cc2c(n(C)c1=O)-c1cc(=O)c(C(=O)O)cn1[C@H](C(C)C)C2` [Example 165, (S)-6-Isopropyl-3-methoxy-1-methyl-2,10-dioxo-2,5,6,10-tetrahydro-1H-pyrido[1,2-h][1,7]naphthyridine-9-carboxylic acid], for which the EC50 was found to be 4.3 µM.

As to `COCCCOc1cc2c(nc1OC)-c1cc(=O)c(C(=O)O)cn1[C@H](C(C)C)CC2` [Example 168, (S)-7-Isopropyl-2-methoxy-3-(3-methoxypropoxy)-11-oxo-5,6,7,11-tetrahydrodipyrido[1,2-a:2′,3′-c]azepine-10-carboxylic acid], the EC50 worked out at 0.071 µM.

In the case of `CC(C)[C@@H]1CCc2cc3c(nc2-c2cc(=O)c(C(=O)O)cn21)OCCCO3` [Example 169, (S)-6-Isopropyl-2-oxo-2,6,7,8,12,13-hexahydro-111-[1,4]dioxepino[2′,3′:5,6]pyrido[2,3-c]pyrido[1,2-a]azepine-3-carboxylic acid], the EC50 was found to be 2.2 µM.

Regarding `CC(C)[C@@H]1CCc2cc3c(nc2-c2cc(=O)c(C(=O)O)cn21)OCCO3` [Example 170, (S)-6-Isopropyl-2-oxo-2,6,7,8,11,12-hexahydro-[1,4]dioxino[2′,3′:5,6]pyrido[2,3-c]pyrido[1,2-a]azepine-3-carboxylic acid e], the EC50 is 5 µM.

In the case of `COCCCOc1cc2c(nc1OC)-c1cc(=O)c(C(=O)O)cn1C1(CCC1)C2` [Example 171, 2′-Methoxy-3′-(3-methoxypropoxy)-10′-oxo-5′,10′-dihydrospiro[cyclobutane-1,6′-pyrido[1,2-h][1,7]naphthyridine]-9′-carboxylic acid], the EC50 turned out to be 0.018 µM.

Regarding `COc1ccc2c(n1)-c1cc(=O)c(C(=O)O)cn1[C@@H]2C(C)C` [Example 172, (R)-5-Isopropyl-2-methoxy-9-oxo-5,9-dihydropyrido[2,3-a]indolizine-8-carboxylic acid], the 50% effective concentration (EC50) is 0.82 µM.

For `CCOC(=O)c1cn2c(cc1=O)-c1nc(OC)ccc1[C@H]2C(C)C` [Example 173, (R)-ethyl-5-isopropyl-2-methoxy-9-oxo-5,9-dihydropyrido[2,3-a]indolizine-8-carboxylate], the 50% effective concentration (EC50) amounted to 8.6 µM.
